The values below come from ChEMBL document CHEMBL3085680, “Design and synthesis of P1-P3 macrocyclic tertiary-alcohol-comprising HIV-1 protease inhibitors” (J Med Chem, 2013).

Series [1] can be described thus: Cytotoxicity against human MT4 cells after 5 days by XTT assay. In kind it is cell-based. On the technique in general: Tetrazolium dyes change colour on reduction, which living cells bring about.
Another series deals with Protease (Human immunodeficiency virus 1, UniProt Q9YQ12). The series can be described thus: Inhibition of HIV1 protease expressed in Escherichia coli by fluorometric assay.
Series [2] in a line: Permeability of the compound across human Caco2 cells. The conditions noted are these: Caco-2, read-out: permeability. It is filed as ADME, cell-based.
Series [3] deals with Human immunodeficiency virus. In words: Antiviral activity against HIV infected in human MT4 cells assessed as inhibition of virus-induced cytopathogenic effect by XTT assay. Conditions: Human immunodeficiency virus 1, MT4. In kind it is functional, organism-based. On the technique in general: Cytopathic effects are the visible damage that an infection or toxin causes in cultured cells.

Sequence of Protease (Q9YQ12 whole entry): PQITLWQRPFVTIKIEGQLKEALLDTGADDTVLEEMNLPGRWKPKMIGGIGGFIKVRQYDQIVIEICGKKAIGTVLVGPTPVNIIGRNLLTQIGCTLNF

Consider `COC(=O)N[C@H](C(=O)NN(CCC[C@@]1(O)Cc2ccc(cc2)/C=C\CNC(=O)[C@H](C(C)(C)C)NC1=O)Cc1ccc(Br)cc1)C(C)(C)C`, for which, in series [1], the CC50 (as a rule, the concentration that lowers cell viability or growth by half) at 120 h came to 40 µM. Moreover, on Protease, the Ki (commonly a dissociation constant, usually derived from enzyme kinetics or from competition with a known ligand) is 0.005 µM. Also, the Papp in series [2] came out at 31 ×10⁻⁶ cm/s. Besides, the EC50 – broadly, the concentration that produces a half-maximal response – in series [3] was determined as 3.3 µM.
On to `CNC(=O)[C@@H](NC(=O)[C@@](O)(CCCN(Cc1ccc(Br)cc1)NC(=O)[C@@H](NC(=O)OC)C(C)(C)C)Cc1ccccc1)C(C)C`, for which the CC50 at 120 h in series [1] is > 10 µM. The 50% effective concentration (EC50) in series [3] amounted to 2.1 µM.
Regarding `C=CCNC(=O)[C@@H](NC(=O)[C@@](O)(CCCN(Cc1ccc(Br)cc1)NC(=O)[C@@H](NC(=O)OC)C(C)(C)C)Cc1ccc(CC=C)cc1)C(C)C`, the midpoint of cytotoxicity in series [1], the CC50 at 120 h, lay at 24 µM. In addition, the Ki on Protease amounted to 0.03 µM. The Papp in series [2] stood at 44 ×10⁻⁶ cm/s. Moreover, the EC50 in series [3] is 6 µM.
For the compound `C=CCNC(=O)[C@@H](NC(=O)[C@](O)(CCCN(Cc1ccc(Br)cc1)NC(=O)[C@@H](NC(=O)OC)C(C)(C)C)Cc1ccc(Br)cc1)C(C)C`, the CC50 at 120 h in series [1] was 4.5 µM. Also, the Ki at Protease stood at 1 µM. In addition, the EC50 in series [3] was > 50 µM.
With `COC(=O)N[C@H](C(=O)NN(CCC[C@@]1(O)Cc2ccc(cc2)C/C=C\CNC(=O)[C@H](C(C)(C)C)NC1=O)Cc1ccc(Br)cc1)C(C)(C)C`, the CC50 at 120 h in series [1] came out at 30 µM. The same compound displayed a Ki on Protease of 0.0042 µM. Besides, the Papp in series [2] stood at 10 ×10⁻⁶ cm/s. Moreover, in series [3], the EC50 was determined as 1 µM.
For the compound `C=CCNC(=O)[C@@H](NC(=O)[C@@](O)(CCCN(Cc1ccc(Br)cc1)NC(=O)[C@@H](NC(=O)OC)C(C)(C)C)Cc1ccc(C=C)cc1)C(C)C`, in series [1], the CC50 at 120 h was determined as 25 µM. On Protease, the Ki came out at 0.015 µM. Besides, the EC50 in series [3] was 6.9 µM.
On to `COC(=O)N[C@H](C(=O)NN(CCC[C@@]1(O)Cc2ccc(cc2)C/C=C\CNC(=O)[C@H](C(C)C)NC1=O)Cc1ccc(Br)cc1)C(C)(C)C`, for which the CC50 at 120 h in series [1] was > 50 µM. This compound also had a Ki on Protease of 0.0031 µM. For the same compound, the Papp in series [2] is 9 ×10⁻⁶ cm/s. Further, in series [3], the EC50 turned out to be 0.37 µM.
On the same counts, the results for `C=CCNC(=O)[C@@H](NC(=O)[C@@](O)(CCCN(Cc1ccc(Br)cc1)NC(=O)[C@@H](NC(=O)OC)C(C)(C)C)Cc1ccc(C=C)cc1)C(C)(C)C` are 44 µM, 0.016 µM, 45 ×10⁻⁶ cm/s and 5.3 µM.
The compound `C=CCNC(=O)[C@@H](NC(=O)[C@](O)(CCCN(Cc1ccc(Br)cc1)NC(=O)[C@@H](NC(=O)OC)C(C)(C)C)Cc1ccc(C=C)cc1)C(C)C` registered a CC50 at 120 h in series [1] of 5.8 µM. The affinity at Protease, expressed as Ki, was 0.78 µM. Further, the EC50 in series [3] is > 50 µM.
`C=CCNC(=O)[C@@H](NC(=O)[C@@](O)(CCCN(Cc1ccc(Br)cc1)NC(=O)[C@@H](NC(=O)OC)C(C)(C)C)Cc1ccc(Br)cc1)C(C)C` returned a CC50 at 120 h in series [1] of 22 µM. The compound also yielded an inhibitory constant (Ki) at Protease of 0.011 µM. For the same compound, the EC50 in series [3] came to 5.8 µM.
Taken in the same sequence, the figures for `C=CCNC(=O)[C@@H](NC(=O)[C@](O)(CCCN(Cc1ccc(Br)cc1)NC(=O)[C@@H](NC(=O)OC)C(C)(C)C)Cc1ccc(Br)cc1)C(C)(C)C` were 21 µM, 0.98 µM and > 50 µM.
Taken in the same sequence, the figures for `C=CCNC(=O)[C@@H](NC(=O)[C@@](O)(CCCN(Cc1ccc(Br)cc1)NC(=O)[C@@H](NC(=O)OC)C(C)(C)C)Cc1ccc(Br)cc1)C(C)(C)C` were 29 µM, 0.01 µM and 2.9 µM.
On to `C=CCNC(=O)[C@@H](NC(=O)[C@](O)(CCCN(Cc1ccc(Br)cc1)NC(=O)[C@@H](NC(=O)OC)C(C)(C)C)Cc1ccc(C=C)cc1)C(C)(C)C`, for which the CC50 at 120 h in series [1] amounted to 25 µM. The compound also yielded a Ki at Protease of 0.72 µM. The EC50 in series [3] is > 50 µM.
For `C=CCNC(=O)[C@@H](NC(=O)[C@@](O)(CCCN(Cc1ccc(Br)cc1)NC(=O)[C@@H](NC(=O)OC)C(C)(C)C)Cc1ccc(CC=C)cc1)C(C)(C)C`, the CC50 at 120 h in series [1] is > 50 µM. At Protease, this compound registered a Ki of 0.037 µM. Moreover, the Papp in series [2] is 44 ×10⁻⁶ cm/s. The EC50 in series [3] was found to be 7.5 µM.
